Laboratory results as given in ChEMBL document CHEMBL4715821, “Discovery of 4-ethoxy-7H-pyrrolo[2,3-d]pyrimidin-2-amines as potent, selective and orally bioavailable LRRK2 inhibitors” (Bioorg Med Chem Lett, 2018).

Experiments:
[1] = biological target: Mitogen-activated protein kinase kinase kinase 11 (Homo sapiens) (UniProt Q16584); assay: Inhibition of wild-type human partial length MLK3 (I77 to W399 residues) expressed in bacterial expression system assessed as residual activity at 1 uM by Kinomescan method relative to control
Mitogen-activated protein kinase kinase kinase 11 (Homo sapiens), sequence (Q16584 whole entry, looked up, the tested form may be a part): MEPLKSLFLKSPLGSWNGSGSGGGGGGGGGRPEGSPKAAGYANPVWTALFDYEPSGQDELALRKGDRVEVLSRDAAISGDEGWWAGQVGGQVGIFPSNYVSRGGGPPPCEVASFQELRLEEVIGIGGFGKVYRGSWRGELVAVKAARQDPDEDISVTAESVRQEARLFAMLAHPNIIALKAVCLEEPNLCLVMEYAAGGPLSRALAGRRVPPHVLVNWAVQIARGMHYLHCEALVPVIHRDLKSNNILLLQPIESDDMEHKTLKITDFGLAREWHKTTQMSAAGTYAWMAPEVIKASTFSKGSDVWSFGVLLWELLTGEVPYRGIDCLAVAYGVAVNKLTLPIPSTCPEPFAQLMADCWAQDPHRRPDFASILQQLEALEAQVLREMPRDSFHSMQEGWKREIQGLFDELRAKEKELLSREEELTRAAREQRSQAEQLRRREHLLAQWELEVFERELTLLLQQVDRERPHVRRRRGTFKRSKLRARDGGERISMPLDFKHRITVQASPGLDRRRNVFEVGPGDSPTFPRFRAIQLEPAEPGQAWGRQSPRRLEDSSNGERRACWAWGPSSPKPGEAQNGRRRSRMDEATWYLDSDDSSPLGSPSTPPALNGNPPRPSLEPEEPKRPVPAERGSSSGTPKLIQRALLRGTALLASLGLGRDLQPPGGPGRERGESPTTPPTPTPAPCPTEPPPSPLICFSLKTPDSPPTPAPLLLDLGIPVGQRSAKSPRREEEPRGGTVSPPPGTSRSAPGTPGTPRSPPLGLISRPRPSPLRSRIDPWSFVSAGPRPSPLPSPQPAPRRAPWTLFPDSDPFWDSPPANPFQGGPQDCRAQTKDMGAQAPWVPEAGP

[2] = biological target: Protein kinase C beta type (Homo sapiens) (UniProt P05771); assay: Inhibition of PKCbeta1 (unknown origin) assessed as residual activity at 1 uM by Kinomescan method relative to control
[3] = biological target: Vascular endothelial growth factor receptor 3 (Homo sapiens) (UniProt P35916); assay: Inhibition of wild-type human partial length FLT4 (E821 to E1196 residues) expressed in bacterial expression system assessed as residual activity at 1 uM by Kinomescan method relative to control
Vascular endothelial growth factor receptor 3 (Homo sapiens), sequence (P35916 whole entry, the tested form may be a part): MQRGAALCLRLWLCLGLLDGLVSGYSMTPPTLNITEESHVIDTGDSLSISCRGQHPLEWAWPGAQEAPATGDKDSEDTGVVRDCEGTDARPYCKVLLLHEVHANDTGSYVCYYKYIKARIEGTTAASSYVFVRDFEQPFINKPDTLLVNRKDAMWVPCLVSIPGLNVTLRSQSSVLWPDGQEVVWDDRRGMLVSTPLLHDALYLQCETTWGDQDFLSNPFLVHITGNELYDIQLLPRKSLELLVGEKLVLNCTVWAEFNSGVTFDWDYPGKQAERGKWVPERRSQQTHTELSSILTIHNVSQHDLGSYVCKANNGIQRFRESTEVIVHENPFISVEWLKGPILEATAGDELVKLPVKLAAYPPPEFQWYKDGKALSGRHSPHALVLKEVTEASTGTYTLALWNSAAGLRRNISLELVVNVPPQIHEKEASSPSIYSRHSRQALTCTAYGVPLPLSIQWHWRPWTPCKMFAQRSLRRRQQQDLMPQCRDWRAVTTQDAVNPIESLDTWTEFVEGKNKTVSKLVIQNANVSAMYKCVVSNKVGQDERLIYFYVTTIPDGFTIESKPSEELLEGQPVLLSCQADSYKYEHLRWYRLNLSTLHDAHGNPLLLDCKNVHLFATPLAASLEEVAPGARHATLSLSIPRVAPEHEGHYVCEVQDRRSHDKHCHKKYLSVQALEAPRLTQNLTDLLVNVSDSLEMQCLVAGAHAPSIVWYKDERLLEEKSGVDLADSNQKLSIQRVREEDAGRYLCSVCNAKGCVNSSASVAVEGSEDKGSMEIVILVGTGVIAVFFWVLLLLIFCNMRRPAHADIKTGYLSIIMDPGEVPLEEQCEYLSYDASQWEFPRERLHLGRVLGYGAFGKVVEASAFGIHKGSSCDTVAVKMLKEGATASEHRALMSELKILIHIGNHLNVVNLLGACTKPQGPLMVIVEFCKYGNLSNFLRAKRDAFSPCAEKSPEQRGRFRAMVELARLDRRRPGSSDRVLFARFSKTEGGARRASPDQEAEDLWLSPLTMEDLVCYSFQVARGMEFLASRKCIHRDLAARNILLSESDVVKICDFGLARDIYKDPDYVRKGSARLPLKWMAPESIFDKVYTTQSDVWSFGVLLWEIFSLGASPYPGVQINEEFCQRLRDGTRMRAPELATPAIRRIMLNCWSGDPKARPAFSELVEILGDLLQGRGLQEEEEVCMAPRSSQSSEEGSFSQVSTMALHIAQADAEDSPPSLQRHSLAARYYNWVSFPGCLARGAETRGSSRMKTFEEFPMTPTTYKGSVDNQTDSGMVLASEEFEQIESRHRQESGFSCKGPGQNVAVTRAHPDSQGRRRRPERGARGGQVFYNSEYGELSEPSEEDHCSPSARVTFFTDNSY

[4] = biological target: Serine/threonine-protein kinase Nek4 (Homo sapiens) (UniProt P51957); assay: Inhibition of wild-type human full length NEK4 (M1 to F841 residues) expressed in mammalian expression system assessed as residual activity at 1 uM by Kinomescan method relative to control
Serine/threonine-protein kinase Nek4 (Homo sapiens), sequence (P51957 whole entry, looked up, the tested form may be a part): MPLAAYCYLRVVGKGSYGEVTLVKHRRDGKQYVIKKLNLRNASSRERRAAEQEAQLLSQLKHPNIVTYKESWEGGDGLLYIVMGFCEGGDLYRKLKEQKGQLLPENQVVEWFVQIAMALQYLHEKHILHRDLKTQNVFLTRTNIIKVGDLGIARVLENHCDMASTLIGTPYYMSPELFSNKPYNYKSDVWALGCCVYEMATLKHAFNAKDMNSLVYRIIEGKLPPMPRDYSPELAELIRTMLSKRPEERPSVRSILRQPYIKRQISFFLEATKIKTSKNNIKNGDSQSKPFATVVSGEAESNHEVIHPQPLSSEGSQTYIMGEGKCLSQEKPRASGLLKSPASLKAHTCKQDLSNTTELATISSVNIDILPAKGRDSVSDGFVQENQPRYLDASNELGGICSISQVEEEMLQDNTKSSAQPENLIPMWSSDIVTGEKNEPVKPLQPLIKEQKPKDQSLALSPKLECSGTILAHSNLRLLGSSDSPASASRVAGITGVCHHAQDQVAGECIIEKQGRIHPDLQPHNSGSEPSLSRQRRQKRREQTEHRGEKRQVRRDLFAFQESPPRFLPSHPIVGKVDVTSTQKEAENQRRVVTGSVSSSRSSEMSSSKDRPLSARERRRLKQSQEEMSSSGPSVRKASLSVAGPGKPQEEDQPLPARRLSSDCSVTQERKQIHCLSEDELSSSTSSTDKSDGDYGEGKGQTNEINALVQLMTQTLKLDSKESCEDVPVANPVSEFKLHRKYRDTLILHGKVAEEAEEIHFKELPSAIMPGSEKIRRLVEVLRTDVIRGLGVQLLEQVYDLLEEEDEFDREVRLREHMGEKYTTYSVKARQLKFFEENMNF

[5] = biological target: G protein-coupled receptor kinase 5 (Homo sapiens) (UniProt P34947); assay: Inhibition of GRK5 (unknown origin) assessed as residual activity at 1 uM by Kinomescan method relative to control
G protein-coupled receptor kinase 5 (Homo sapiens), sequence (P34947 whole entry, looked up): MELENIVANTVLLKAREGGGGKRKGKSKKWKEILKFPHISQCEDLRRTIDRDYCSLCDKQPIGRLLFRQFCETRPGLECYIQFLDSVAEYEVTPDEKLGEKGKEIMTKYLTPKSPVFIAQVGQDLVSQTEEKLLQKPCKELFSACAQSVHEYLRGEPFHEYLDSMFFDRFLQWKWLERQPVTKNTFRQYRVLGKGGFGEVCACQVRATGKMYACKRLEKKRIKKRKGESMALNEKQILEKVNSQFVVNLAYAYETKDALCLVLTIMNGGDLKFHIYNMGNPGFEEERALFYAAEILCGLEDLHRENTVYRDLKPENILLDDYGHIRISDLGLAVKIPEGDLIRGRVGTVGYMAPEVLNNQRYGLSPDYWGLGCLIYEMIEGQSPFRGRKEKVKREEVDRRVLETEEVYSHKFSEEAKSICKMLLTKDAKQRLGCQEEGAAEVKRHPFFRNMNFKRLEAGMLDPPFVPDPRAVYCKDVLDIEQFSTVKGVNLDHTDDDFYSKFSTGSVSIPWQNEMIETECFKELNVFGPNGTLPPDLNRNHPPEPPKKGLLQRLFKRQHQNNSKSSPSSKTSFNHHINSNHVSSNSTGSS

[6] = Unbound fraction in Han-Wistar rat brain at 10 mg/kg, po; format: ADME, organism-based
[7] = biological target: Macrophage-stimulating protein receptor (Homo sapiens) (UniProt Q04912); assay: Inhibition of wild-type human partial length MST1R (I1057 to L1363 residues) expressed in bacterial expression system assessed as residual activity at 1 uM by Kinomescan method relative to control
[8] = In vivo inhibition of LRRK2 in Han-Wistar rat assessed as reduction in Ser935 phosphorylation in brain at 100 mg/kg, po by Western blot analysis; format: functional; parameters: scale not given: the % may be the effect or the level left
[9] = In vivo inhibition of LRRK2 in C57BL6 mouse assessed as reduction in Ser935 phosphorylation in brain at 45 mg/kg, po after 1 hr by Western blot analysis; format: functional; parameters: scale not given: the % may be the effect or the level left
[10] = biological target: CDK3/Cyclin E (Homo sapiens) (UniProt P24864+Q00526); assay: Inhibition of wild-type human full length CDK3 (M1 to H305 residues)/Cyclin E expressed in bacterial expression system at 1 uM by Kinomescan method; parameters: scale not given: the % may be the effect or the level left
[11] = biological target: Ribosomal protein S6 kinase alpha-3 (Homo sapiens) (UniProt P51812); assay: Inhibition of wild-type human partial length N-terminal RSK2 kinase domain 1 (M1 to D394 residues) expressed in mammalian expression system assessed as residual activity at 1 uM by Kinomescan method relative to control
Ribosomal protein S6 kinase alpha-3 (Homo sapiens), sequence (P51812 whole entry, the tested form may be a part): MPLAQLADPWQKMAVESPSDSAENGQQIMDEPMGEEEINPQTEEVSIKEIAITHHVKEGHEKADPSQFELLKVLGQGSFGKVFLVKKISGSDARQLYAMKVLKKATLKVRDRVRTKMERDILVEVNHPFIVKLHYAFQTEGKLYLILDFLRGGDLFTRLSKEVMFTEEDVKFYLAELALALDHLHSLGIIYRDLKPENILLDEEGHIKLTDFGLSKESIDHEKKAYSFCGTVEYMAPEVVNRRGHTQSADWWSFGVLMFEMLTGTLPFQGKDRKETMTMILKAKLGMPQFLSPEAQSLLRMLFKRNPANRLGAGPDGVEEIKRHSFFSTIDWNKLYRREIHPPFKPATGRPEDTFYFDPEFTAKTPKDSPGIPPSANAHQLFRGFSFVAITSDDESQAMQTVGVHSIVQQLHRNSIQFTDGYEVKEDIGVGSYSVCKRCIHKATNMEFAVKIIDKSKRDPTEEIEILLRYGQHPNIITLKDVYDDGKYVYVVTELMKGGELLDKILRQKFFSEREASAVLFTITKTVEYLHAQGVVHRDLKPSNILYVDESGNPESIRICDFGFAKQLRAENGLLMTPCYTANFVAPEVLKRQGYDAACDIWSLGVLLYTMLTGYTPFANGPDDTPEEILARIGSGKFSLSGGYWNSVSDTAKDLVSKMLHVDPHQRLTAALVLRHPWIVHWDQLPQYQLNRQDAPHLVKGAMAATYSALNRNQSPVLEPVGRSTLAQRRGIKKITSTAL

[12] = biological target: Vascular endothelial growth factor receptor 2 (Homo sapiens) (UniProt P35968); assay: Inhibition of wild-type human partial length VEGFR2 (R787 to P1253 residues) expressed in mammalian expression system assessed as residual activity at 1 uM by Kinomescan method relative to control
[13] = biological target: Death-associated protein kinase 1 (Homo sapiens) (UniProt P53355); assay: Inhibition of wild-type human partial length DAPK1 (M1 to F296 residues) expressed in bacterial expression system assessed as residual activity at 1 uM by Kinomescan method relative to control
[14] = biological target: NT-3 growth factor receptor (Homo sapiens) (UniProt Q16288); assay: Inhibition of wild-type human partial length TRKC (Q531 to G825 residues) expressed in mammalian expression system assessed as residual activity at 1 uM by Kinomescan method relative to control
[15] = biological target: Serine/threonine-protein kinase Chk2 (Homo sapiens) (UniProt O96017); assay: Inhibition of CHK2 (unknown origin) assessed as residual activity at 1 uM by Kinomescan method relative to control
[16] = biological target: Tyrosine-protein kinase Blk (Homo sapiens) (UniProt P51451); assay: Inhibition of wild-type human partial length BLK (G211 to L503 residues) expressed in bacterial expression system assessed as residual activity at 1 uM by Kinomescan method relative to control
[17] = biological target: Calcium/calmodulin-dependent protein kinase kinase 1 (Homo sapiens) (UniProt Q8N5S9); assay: Inhibition of wild-type human partial length CAMKK1 (R65 to E414 residues) expressed in bacterial expression system assessed as residual activity at 1 uM by Kinomescan method relative to control
Calcium/calmodulin-dependent protein kinase kinase 1 (Homo sapiens), sequence (Q8N5S9 whole entry, looked up, the tested form may be a part): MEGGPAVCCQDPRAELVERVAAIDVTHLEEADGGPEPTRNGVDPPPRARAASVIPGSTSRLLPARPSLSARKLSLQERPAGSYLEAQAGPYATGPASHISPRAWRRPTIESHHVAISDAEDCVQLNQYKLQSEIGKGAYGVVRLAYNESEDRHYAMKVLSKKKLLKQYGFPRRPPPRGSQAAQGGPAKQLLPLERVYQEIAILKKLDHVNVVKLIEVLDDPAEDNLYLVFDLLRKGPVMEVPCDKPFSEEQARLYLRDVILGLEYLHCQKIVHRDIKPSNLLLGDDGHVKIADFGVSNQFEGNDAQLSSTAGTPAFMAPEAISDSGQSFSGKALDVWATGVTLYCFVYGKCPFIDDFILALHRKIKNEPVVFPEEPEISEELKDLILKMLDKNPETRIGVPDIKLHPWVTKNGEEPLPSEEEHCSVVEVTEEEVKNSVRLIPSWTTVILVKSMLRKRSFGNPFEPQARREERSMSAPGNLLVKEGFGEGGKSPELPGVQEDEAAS

[18] = biological target: Receptor-interacting serine/threonine-protein kinase 3 (Homo sapiens) (UniProt Q9Y572); assay: Inhibition of wild-type human partial length RIPK3 (M1 to Q307 residues) expressed in bacterial expression system assessed as residual activity at 1 uM by Kinomescan method relative to control
[19] = biological target: Serine/threonine-protein kinase MARK1 (Homo sapiens) (UniProt Q9P0L2); assay: Inhibition of wild-type human partial length MARK1 (Q30 to T341 residues) expressed in bacterial expression system assessed as residual activity at 1 uM by Kinomescan method relative to control
[20] = biological target: RAF proto-oncogene serine/threonine-protein kinase (Homo sapiens) (UniProt P04049); assay: Inhibition of wild-type human partial length RAF1 (I330 to T640 residues) expressed in bacterial expression system assessed as residual activity at 1 uM by Kinomescan method relative to control
[21] = biological target: Mitogen-activated protein kinase 10 (Homo sapiens) (UniProt P53779); assay: Inhibition of wild-type human partial length JNK3 (V28 to Q422 residues) expressed in mammalian expression system assessed as residual activity at 1 uM by Kinomescan method relative to control
[22] = biological target: Tyrosine-protein kinase Fes/Fps (Homo sapiens) (UniProt P07332); assay: Inhibition of wild-type human partial length FES (I527 to R822 residues) expressed in bacterial expression system assessed as residual activity at 1 uM by Kinomescan method relative to control
[23] = biological target: Calcium/calmodulin-dependent protein kinase kinase 2 (Homo sapiens) (UniProt Q96RR4); assay: Inhibition of wild-type human partial length CAMKK2 (D65 to V471 residues) expressed in bacterial expression system assessed as residual activity at 1 uM by Kinomescan method relative to control
[24] = biological target: Serine/threonine-protein kinase 10 (Homo sapiens) (UniProt O94804); assay: Inhibition of wild-type human partial length LOK (E16 to V314 residues) expressed in bacterial expression system assessed as residual activity at 1 uM by Kinomescan method relative to control
[25] = biological target: Ribosomal protein S6 kinase alpha-5 (Homo sapiens) (UniProt O75582); assay: Inhibition of wild-type human partial length N-terminal RPS6KA5 kinase domain 1 expressed in bacterial expression system assessed as residual activity at 1 uM by Kinomescan method relative to control
[26] = biological target: Serine/threonine-protein kinase haspin (Homo sapiens) (UniProt Q8TF76); assay: Inhibition of wild-type human partial length HASPIN (I452 to K798 residues) expressed in mammalian expression system assessed as residual activity at 1 uM by Kinomescan method relative to control
[27] = biological target: Calcium/calmodulin-dependent protein kinase type II subunit alpha (Homo sapiens) (UniProt Q9UQM7); assay: Inhibition of wild-type human partial length CAMK2A (M1 to K328 residues) expressed in bacterial expression system assessed as residual activity at 1 uM by Kinomescan method relative to control

CCOc1nc(Nc2ccc(C(=O)N3CCOCC3)cc2OC)nc2[nH]ccc12
Activity [1]: 101%
Activity [2]: 100%
Activity [3]: 106%
Activity [4]: 95%
Activity [5]: 92.6%
fraction unbound [6]: 0.01
Activity [7]: 96.9%
Activity [8]: 75%
Activity [9]: 50%
Activity [10]: 87.7%
Activity [11]: 65.1%
Activity [12]: 97.7%
Activity [13]: 64.9%
Activity [14]: 97.7%
Activity [15]: 16.8%
Activity [16]: 114%
Activity [17]: 101%
Activity [18]: 108%
Activity [19]: 98.5%
Activity [20]: 97.5%
Activity [21]: 100%
Activity [22]: 43.2%
Activity [23]: 81.6%
Activity [24]: 92.7%
Activity [25]: 97.6%
Activity [26]: 89.5%
Activity [27]: 214%
